The text below walks through data of publication PMC9103660, “Two Novel Antihypertensive Peptides Identified in Millet Bran Glutelin-2 Hydrolysates: Purification, In Silico Characterization, Molecular Docking with ACE and Stability in Various Food Processing Conditions” (Foods, 2022).

“Also recorded” adds a separate entry of the source. Peptide text beside a SMILES is read from it.

The subject of series [1] is ACE. The experiment in a line: ACE inhibition after simulated gastrointestinal digestion. The note with it: simulated gastric fluid (pepsin, pH 2.0) 90 min then simulated intestinal fluid (trypsin, bile salt, pH 6.8) 180 min, 37 °C, peptide 1 mg/mL; read-out ACE IC50 before/after. The series is classed as in vitro ADME. The method, then: As per the same procedure described by Jimsheena and Gowda, the inhibition of ACE was evaluated by comparing the quantity of produced hippuric acid before and after the addition of the peptides. The IC50 value was calculated from the regression equation of ACE inhibition percentage for different concentrations of the sample and defined as the concentration of sample inhibiting ACE activity by 50%.
Mixtures of trypsin (0.45 g), pig bile salt (3 g) and NaHCO3 (6.25 g) dissolved in 100 mL of dH2O (pH 6.8) were used to simulate the intestinal fluid, whereas pepsin (40 mg) and NaCl (0.877 g) dissolved in 100 mL of dH2O (pH 2.0) were used to simulate the gastric fluid (Sun et al., 2021). Peptide solutions (dissolved in ultrapure water, 1 mg/mL) were incubated at 37 °C in a stirring bath (140 r/min) for 15 min, and then the simulated gastric fluid was added (gastric fluid: peptide solution = 1: 10 v/v), and the mixture was further incubated at 37 °C (140 r/min) for 90 min. Then, the reaction solution was adjusted to pH 6.8 with Na2HPO4. The simulated intestinal fluid (the fluid: peptide solution = 1: 10, v/v) was added, and the mixture was stirred (140 r/min) at 37 °C for 180 min. All reaction solutions were heated at 100 °C for 8 min to inactivate the enzymes. The ACE inhibition activities of the peptides before and after digestion were separately determined to evaluate their stability.

The conditions of series [2]: proline-rich literature peptides; cited from earlier work. An excerpt:
ACE-inhibitory peptides should have sufficient resistance to digestion by proteases existing in the gastrointestinal tract to exert antihypertension activity in the body.

The subject of series [3] is ACE. On the set-up: method as in 2 sources, ref 34, 35 = [34]; PMID 32220144; doi:10.1111/1750-3841.15115; 34. Zheng Y.J. Wang X. Zhuang Y.L. Li Y. Shi P.Q. Tian H.L. Li X.T. Chen X. Isolation of novel ACE-inhibitory peptide from naked oat globulin hydrolysates in silico approach: Molecular docking, in viv || [35]; PMID 29606478; doi:10.1016/j.foodchem.2018.02.107; 35. Tu M. Wang C. Chen C. Zhang R. Liu H. Lu W. Jiang L. Du M. Identification of a novel ACE-inhibitory peptide from casein and evaluation of the inhibitory mechanisms Food Chem. 2018 256 98 104 10.10 ||| ref 20 = [20]; doi:10.1016/j.jff.2016.11.021; 20. Zheng Y.J. Li Y. Zhang Y.L. Ruan X.H. Zhang R.G. Purification, characterization, synthesis, in vivo ACE inhibition and in vitro antihypertensive activity of bioactive peptides derived from palm ke. The note with it: cited from earlier work; for IC50: literature peptides, read-out: IC50 (ACE inhibition).

Regarding `CC(C)C[C@H](NC(=O)[C@H](CC(C)C)NC(=O)[C@@H]1CCCN1)C(=O)N[C@@H](CCCCN)C(=O)O` [PLLK, Pro-Leu-Leu-Lys] (H-PLLK-OH), in series [1], the “stability during simulated gastrointestinal digestion” value is listed as “resistant; also recorded: relatively stable; also recorded: relatively high stability”.

With `CSCC[C@H](NC(=O)[C@@H]1CCCN1C(=O)[C@@H]1CCCN1)C(=O)N[C@@H](Cc1c[nH]c2ccccc12)C(=O)N1CCC[C@H]1C(=O)N[C@@H](Cc1ccccc1)C(=O)N[C@H](C(=O)O)C(C)C` [PPMWPFV, Pro-Pro-Met-Trp-Pro-Phe-Val] (H-PPMWPFV-OH), the “stability during simulated gastrointestinal digestion” value in series [1] was “resistant; also recorded: relatively stable; also recorded: relatively high stability”.

“ELHPQ [proline-rich peptide identified in canary seeds]”: the “stability during gastrointestinal digestion” value in series [2] is given as “excellent stability”.

On to “KPVPR [proline-rich peptide identified in canary seeds]”, for which, in series [2], the “stability during gastrointestinal digestion” value was “excellent stability”.

Consider “LHPQ [proline-rich peptide identified in canary seeds]”, for which the “stability during gastrointestinal digestion” value in series [2] was “excellent stability”.

For NMAINPSKENLCSTFCK, in series [3], the “inhibition mode towards ACE” value is “a competitive inhibitor of ACE” and the IC50 was 129 µM.

For the compound SSYYPFK, in series [3], the “inhibition mode towards ACE” value is reported as “a competitive inhibitor” and the IC50 was 91.8 µM. Further, in series [2], the “stability during gastrointestinal digestion” value was “excellent stability”.

For orientation: IC50 means the concentration that gives 50% inhibition.
